Measurements taken from article PMC9234963, “Optimizing Shape Complementarity Enables the Discovery of Potent Tricyclic BCL6 Inhibitors” (Journal of Medicinal Chemistry, 2022).
“And” between values parts separate entries of the source, which are not always exact repeats. Equal entries are not always repeated. Where two headings read alike, the source gives them in different places.

Experiments:
human BCL6 BTB domain = human BCL6 BTB domain (Homo sapiens, UniProt P41182); test: biochemical; conditions: for BCL6 TR-FRET mean pIC50: mean of replicates
Text: 6. Supplementary tables … S-17
Table S1: summary statistics and individual replicate values … S-17 […]
1. Supplementary experimental: protein production, purification and crystallography 1.1 BCL6 constructs used for assays and crystallography
A first construct of BCL6 BTB domain, which we will refer to as Trx-6His-HRV3C-BCL6, was obtained […]
3C protease cleavage site. For the TR-FRET assay, the Trx-6His-HRV3C-BCL6 protein construct was […]
used without cleaving the tag, as a 6His was needed to bind to the anti-6His-Terbium antibody. […]
For both plasmid constructs described above, transformed BL21-AI E. coli cells were grown in LB […]
carried out at 18 °C for 18 hours. Cells were harvested by centrifugation (5500 g for 30 minutes at 4 […]
oC) and stored at -80 °C.
2. Supplementary experimental: biological assay conditions
IC50 values were determined using […]
a sigmoidal four-parameter logistic fit equation.
Individual replicates shown in supplementary

OCI-Ly1 = test: Cell proliferation assay (14 days, CellTiter Glo), OCI-Ly1; format: cell-based; conditions: Homo sapiens, BCL6-high line
Experimental: (§1) After a short centrifugation the plates
(§2) The % inhibition at each test
(§3) 2.3 Cell proliferation assay
(§4) Compounds were initially dispensed into 96- […]
(§5) medium and transferred onto the cells.
(§6) The volume of medium containing 2500 cells in the control well was calculated and this volume of cells was transferred from every well of the assay plates to the corresponding well of the fresh plates containing compound. After 14 days, CellTiter Glo reagent (Promega) was added to the medium in each well of the assay plate at a ratio of 1:2, mixed on a plate shaker, then incubated at room temperature for 10 minutes. Luminescence was measured using an Envision plate reader (Perkin Elmer) and the relative luminescence at each compound concentration, compared to DMSO alone, was calculated. GI50 were determined using a 4-parameter curve fit in Dotmatics (Bishops Stortford, UK).

Karpas 422 = test: Cell proliferation assay (14 days, CellTiter Glo), Karpas 422; format: cell-based; conditions: Homo sapiens, KARPAS-422, read-out: Karpas 422 GI50, BCL6-high line
Experimental: as §1, §2, §3, §4, §5, §6

OCI-Ly3 = test: Cell proliferation assay (14 days, CellTiter Glo), OCI-Ly3; format: cell-based; conditions: Homo sapiens, BCL6-low line
Experimental: as §1, §2, §3, §4, §5, §6

[1] = HPLC kinetic solubility assay; format: physicochemical; conditions: kinetic solubility by HPLC, 10 mM phosphate-buffered saline pH 7.4, 1% DMSO
Experimental: 3.2 HPLC solubility assay
DMSO. Following shaking of the suspension on a Bohdan Shaker at 500 rpm for 2 hours at room […]
200 µL of the supernatant was transferred to a 2 mL Agilent vial containing 50 µL of DMSO (Sigma […]
detection using an external standard which was prepared by pipetting 10 µL of the same batch of […]
The detail of the HPLC method is as following: chromatographic separation at 30°C is carried out over a 5 minute gradient elution method from 90:10 to 10:90 water:methanol (both modified with 0.1% formic acid) at a flow rate of 1.5 mL/min. Calibration curve is prepared by injecting 0.5, 2.5, and 5 µL of compound external standard.
62.5 µL of compound solubility sample. […]

PAMPA permeability = conditions: pH 7.4
[2] = cited from earlier work
[3] = read-out: BCL6 TR-FRET IC50, geometric mean of replicates
[4] = read-out: BCL6 TR-FRET IC50 individual replicates, single replicates, 10 nM BCL6 for early examples, else 1 nM

Cn1c(=O)c2c(c3cc(Nc4ccnc(Cl)c4C#N)ccc31)N[C@@H](C1CC1)C(F)(F)CO2 [Compound 1, (S)-2-Chloro-4-((2-cyclopropyl-3,3-difluoro-7-methyl-6-oxo-1,2,3,4,6,7-hexahydro-[1,4]oxazepino[2,3-c]quinolin-10-yl)amino)nicotinonitrile]
IC50 (human BCL6 BTB domain; BCL6 TR-FRET IC50 individual replicates, single replicates, 10 nM BCL6 for early examples, else 1 nM): 2.9 nM (3×) and 2.4 nM and 16.2 nM
BCL6 TR-FRET mean pIC50 (human BCL6 BTB domain): 8.40 and 8.41
IC50 (human BCL6 BTB domain; read-out: BCL6 TR-FRET IC50, Figure 1): 4 nM and 3.9 nM
IC50 (human BCL6 BTB domain; [3]): 3.9 nM
IC50 (human BCL6 BTB domain; [4]): 3.9 nM
GI50 (OCI-Ly1): 170 nM
GI50 (Karpas 422): 190 nM
GI50 (OCI-Ly3): 3400 nM

CCNc1cc(=O)[nH]c2ccc(Nc3ccnc(Cl)c3C#N)cc12 [Compound 2]
IC50 (human BCL6 BTB domain; BCL6 TR-FRET IC50, geometric mean of replicates): 1200 nM
BCL6 TR-FRET mean pIC50 (human BCL6 BTB domain): 5.88
IC50 (human BCL6 BTB domain; [3]): 1310 nM and 1300 nM
Aq. Sol [1]: 9.7 µM
PAMPA Pe (7.4) (PAMPA permeability): <0.1 × 10^–6 cm s^–1

Cn1c(=O)cc(NC(C)(C)c2ncc(C3CC3)cn2)c2cc(Nc3ccnc(Cl)c3C#N)ccc21 [Compound 3]
BCL6 TR-FRET mean pIC50 (human BCL6 BTB domain): 7.58
IC50 (human BCL6 BTB domain; [3]): 26 nM
IC50 (human BCL6 BTB domain; [4]): 25.5 nM and 33.1 nM and 41 nM and 22.6 nM and 15.6 nM
GI50 (Karpas 422): 3320 nM
Aq. Sol [1]: 31 µM
passive permeability [2]: high
PAMPA Pe (7.4) (PAMPA permeability): 35 × 10^–6 cm s^–1
